The values that follow come from patent US9833425B2, “Gentisic acid is used to improve systemic hemodynamics, hepatic mitochondrial function and lactate acidemia in patients with septic shock” (priority 2015, dated 2017).

“Also recorded” adds a separate entry of the source.

The assay deals with hepatic mitochondria. As to the kind of experiment: Oxygen consumption rates of hepatic mitochondria harvested after in vivo treatment (Seahorse XF24). Also noted: species or system dog. The conditions noted are these: treated septic dogs; for coupled respiration (OCR after ADP) of hepatic mitochondria: ADP 4 mM; for maximal (uncoupled) respiration (OCR after FCCP) of hepatic mitochondria: FCCP 4 uM. The protocol: After completion of the in-vivo measurements, we administered sodium pentobarbital (110 mg/kg) to euthanize the animal. In a subset of animals of each group, we immediately harvested a piece of liver and isolated the mitochondria as described by Schnaitman and Greenawalt (23). Briefly, we minced the extracted liver in mitochondrial isolation buffer (MSHE) that includes 70 mM sucrose, 210 mM mannitol, 5 mM HEPES, 1 mM EGTA, and fatty acid free bovine serum albumin (BSA). We then disrupted the tissue using a drill-driven glass/Teflon dounce homogenizer. We centrifuged the homogenate three times, after which we re-suspended the final pellet in a minimal volume of MSHE+BSA and determined protein (mg/ml). We diluted the mitochondrial preparation in cold mitochondrial assay solution (MAS) that contained 70 mM sucrose, 220 mM mannitol, 10 mM KH2PO4, 5 mM MgCl2, 2 mM HEPES, 1 mM EGTA, and BSA for plating directly onto the custom Seahorse 24-well culture dish (˜20 ug mitochondrial protein/50 ul per well; see further below). After centrifugation of the plate and addition of appropriate substrates, we viewed the mitochondria under a microscope to ensure consistent adherence to the well. We then transferred the plate to the XF24 Analyzer for initiation of the protocol as described below (17).
To examine mitochondrial function in this model, we used a novel new technology that is capable of measuring dynamic changes in mitochondrial function, not easily attainable by other technologies (17). The Seahorse® XF24 extracellular flux analyser (Seahorse Bioscience, MA, USA) refines the technology by which mitochondrial oxygen consumption can be measured. This technology uses a piston to reversibly enclose a small volume (7 ul) above the mitochondria that can monitor oxygen uptake in that volume for 2-5 min, then raises the piston, allowing the bulk incubation medium (˜1 ml) to re-equilibrate. The ability to make up to 4 additions during the experiment allows mitochondrial respiration to be measured under various metabolic conditions. This piece of equipment has never been used to measure mitochondrial function in SS.
In this protocol, we sequentially measured mitochondrial function under various metabolic conditions (17). To obtain basal OCR, we first added a substrate to the preparation that contained pyruvate (10 mM) and malate (2 mM). We then added ADP (adenosine-diphosphate; 4 mM) that allows ATP synthase to function, producing an increase in OCR (coupled OCR) that is termed “state3ADP”. When the ATP/ADP ratio approaches equilibrium, pmf rises, after which proton reentry through the synthase stops and respiration slows. We terminated coupled respiration (i.e. state3ADP) by the addition of the ATP synthase inhibitor oligomycin (2.0 uM) in which we achieved “stateoligomycin” where ATP recycling cannot contribute and there is a stable decrease in OCR. We then added the protonophore, FCCP (4 uM; carbonyl cyanide p-trifluoromethoxy-phenylhydrazone). FCCP leads to uncoupled respiration in which we previously titrated the concentration of FCCP to yield a maximal effect. In mitochondria in which ATP synthase activity is a limiting factor, uncoupled respiration may be greater than coupled respiration. […] We finally added rotenone (R; 2 uM) and antimycin A (AA; 2 uM) which are inhibitors of the electron transport chain (ETC) complexes, I and III, respectively. When added to the mitochondrial preparation, these inhibitors produce a marked decline in mitochondrial respiration since the electron transport chain is inhibited.
With each treatment group, we obtained measurements of basal OCR, coupled OCR (i.e. state3ADP), and maximal OCR. In addition, we calculated coupled and uncoupled respiratory control ratios from state3ADP/stateoligomycin and uncoupled respiration/state FCCP/stateoligomycin, respectively. […]

The mark [1] stands for this setting: listed as gentisic, sodium salt.

For the molecule `O=C(O)c1cc(O)c(O)c(O)c1` [gallic acid, 3,4,5 trihydroxybenzoic acid], the “coupled respiration (OCR after ADP) of hepatic mitochondria” value (“coupled respiration (OCR after ADP)” for short) was “not different from values found in the non-septic control group” and the “maximal (uncoupled) respiration (OCR after FCCP) of hepatic mitochondria” value is reported as “restored the reduction in maximal respiration”.

Consider `O=C([O-])c1cc(O)ccc1O.[Na+]` [GSS, 2,5-dihydroxybenzoic acid sodium salt], for which the “maximal (uncoupled) respiration (OCR after FCCP) of hepatic mitochondria” value is on record as “increase maximal OCR”. Further, under setting [1], the “coupled respiration (OCR after ADP)” value was “significantly greater than the other groups; also recorded: large increase in coupled respiration” and the “augmented respiratory capacity (uncoupled minus coupled respiration)” value is reported as “lowest; also recorded: reduction in augmented respiratory capacity”. In addition, where the note is “sodium salt”, the “coupled respiration (OCR after ADP)” value is “greater response to ADP as compared to the other groups”. Also, for the setting “pyruvate and malate substrate”, the “basal respiration (basal OCR) of hepatic mitochondria” value is listed as “restoring basal respiration to the non-septic control value”.
